Assays:
EP4 [1] = molecular target: T1, EP4 (Homo sapiens, UniProt P35408); assay: EP4 binding (Ki)
Description: (§1) U.S. Pat. No. 7,427,685 incorporated by reference herein, describes the methods used to obtain the in vitro data in Table 2 below.

DP = molecular target: T2, DP (Homo sapiens, UniProt Q13258); assay: Other receptors Ca2+ functional assay, DP; format: cell-based
T2 sequence (Q13258 1-359): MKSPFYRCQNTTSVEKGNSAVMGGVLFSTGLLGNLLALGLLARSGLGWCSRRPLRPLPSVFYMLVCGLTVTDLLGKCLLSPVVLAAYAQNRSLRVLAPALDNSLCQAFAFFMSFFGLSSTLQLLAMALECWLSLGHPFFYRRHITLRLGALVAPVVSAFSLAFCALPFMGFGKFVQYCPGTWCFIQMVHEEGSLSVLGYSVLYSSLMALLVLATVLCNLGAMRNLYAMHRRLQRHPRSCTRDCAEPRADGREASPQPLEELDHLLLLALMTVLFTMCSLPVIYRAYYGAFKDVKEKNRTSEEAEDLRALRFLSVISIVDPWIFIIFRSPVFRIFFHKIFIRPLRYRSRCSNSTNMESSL
Description: as §1

EP2 [2] = molecular target: T3, EP2 (Homo sapiens, UniProt P43116); assay: EP2 binding (Ki)
T3 sequence (P43116 whole entry): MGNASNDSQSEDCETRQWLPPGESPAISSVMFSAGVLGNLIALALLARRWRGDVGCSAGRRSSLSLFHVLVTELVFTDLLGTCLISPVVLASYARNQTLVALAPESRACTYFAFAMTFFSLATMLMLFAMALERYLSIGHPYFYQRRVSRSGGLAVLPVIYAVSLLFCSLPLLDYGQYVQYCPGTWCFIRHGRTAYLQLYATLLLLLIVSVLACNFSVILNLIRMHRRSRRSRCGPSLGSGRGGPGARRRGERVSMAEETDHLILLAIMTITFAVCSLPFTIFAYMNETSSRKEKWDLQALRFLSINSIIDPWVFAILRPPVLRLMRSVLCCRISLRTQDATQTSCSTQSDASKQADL
Description: as §1

EP4 [3] = molecular target: T1, EP4; assay: EP4 Ca2+ signal functional assay; format: cell-based
Description: as §1

EP2 [4] = molecular target: T3, EP2; assay: EP2 cAMP functional assay; format: cell-based
Description: as §1

EP2 [5] = molecular target: T3, EP2; assay: EP2 Ca2+ signal functional assay; format: cell-based
Description: as §1

EP3 = molecular target: T4, EP3 (Homo sapiens, UniProt P43115); assay: Other receptors Ca2+ functional assay, EP3; format: cell-based
T4 sequence (P43115 1-390): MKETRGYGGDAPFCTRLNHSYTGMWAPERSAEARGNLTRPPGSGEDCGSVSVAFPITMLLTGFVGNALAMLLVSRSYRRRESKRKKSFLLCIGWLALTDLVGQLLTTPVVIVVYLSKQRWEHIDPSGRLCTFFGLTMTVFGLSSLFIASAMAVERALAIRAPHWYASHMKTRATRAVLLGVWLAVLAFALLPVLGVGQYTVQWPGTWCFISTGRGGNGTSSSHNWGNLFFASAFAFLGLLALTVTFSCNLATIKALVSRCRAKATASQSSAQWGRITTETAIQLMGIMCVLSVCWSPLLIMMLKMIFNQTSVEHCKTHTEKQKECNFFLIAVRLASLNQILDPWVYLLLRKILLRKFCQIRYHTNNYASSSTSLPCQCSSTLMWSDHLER
Description: as §1

T1 sequence (P35408 whole entry): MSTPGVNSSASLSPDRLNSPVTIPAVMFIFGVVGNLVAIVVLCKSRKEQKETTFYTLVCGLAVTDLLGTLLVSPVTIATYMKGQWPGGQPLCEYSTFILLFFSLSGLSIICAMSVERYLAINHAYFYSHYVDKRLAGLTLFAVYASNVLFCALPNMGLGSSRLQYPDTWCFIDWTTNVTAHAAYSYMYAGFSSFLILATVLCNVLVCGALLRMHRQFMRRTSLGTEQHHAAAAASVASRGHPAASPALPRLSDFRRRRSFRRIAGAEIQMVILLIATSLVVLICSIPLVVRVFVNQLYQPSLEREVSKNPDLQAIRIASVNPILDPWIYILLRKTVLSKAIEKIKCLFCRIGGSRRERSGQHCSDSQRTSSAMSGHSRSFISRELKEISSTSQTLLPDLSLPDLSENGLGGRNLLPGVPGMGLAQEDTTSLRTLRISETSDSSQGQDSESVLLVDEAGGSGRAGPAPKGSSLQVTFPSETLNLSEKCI

Row | Compound | Ki (EP4 [1]) [µM] | EC50 (DP) [nM] | Ki (EP2 [2]) [µM] | EC50 (EP4 [3]) [µM] | EC50 (EP2 [4]) [µM] | EC50 (EP2 [5]) [µM] | EC50 (EP3) [nM]
1 | O=C(O)c1ccc(CCC[C@@H]2[C@@H](/C=C/C3CCCC3)[C@H](O)C[C@H]2Cl)s1 [Entry 2] | 2.74 | 191 | 0.01 | 1.35 | 0.0009 | 0.003 | –
2 | O=C(O)c1ccc(CCC[C@@H]2[C@@H](/C=C/C3CCCCC3)[C@H](O)C[C@H]2Cl)s1 [Entry 4] | 2.71 | 2160 | 0.004 | 3.32 | 0.0005 | 0.007 | 5220
3 | O=C(O)c1ccc(CCC[C@@H]2[C@@H](CCC3CCCC3)[C@H](O)C[C@H]2Cl)s1 [compound 1] | 2.62 | 259 | 0.009 | 3.07 | 0.0006 | 0.004 | –

Next, values leading:

Row | Ki (EP4 [1]) [µM] | EC50 (DP) [nM] | Ki (EP2 [2]) [µM] | EC50 (EP4 [3]) [µM] | EC50 (EP2 [4]) [µM] | EC50 (EP2 [5]) [µM] | EC50 (EP3) [nM] | Compound
4 | 2.15 | 548 | 0.0008 | 6.64 | 0.0002 | 0.012 | 9050 | O=C(O)c1ccc(CCC[C@@H]2[C@@H](CCC3CCCCC3)[C@H](O)C[C@H]2Cl)s1 [Entry 3]
5 | 5.06 | – | 1.04 | 9.33 | 0.152 | 2.41 | – | CCCCCC1(CC[C@@H]2[C@@H](CCCc3ccc(C(=O)O)s3)[C@H](Cl)C[C@H]2O)CCCCC1 [Entry 5]

Source: patent US8299068B2, “Therapeutically active cyclopentanes” (Allergan, Inc., priority 2010, dated 2012)
